From the NIST ThermoML archive (doi:10.1007/s10765-010-0861-2)

How the values were obtained:
[1] = 101.33 kPa, Liquid; for mass density: Pycnometric method
[2] = xn = mol fraction of the nth substance listed; settings: 308.15 K, 101 kPa, Liquid, Frequency=2 MHz

O=C1CCCN1 [2-pyrrolidinone]
[1]
Settings	mass density [kg/m3]	speed of sound [m/s]
298.15 K	1107.26	–
308.15 K	–	1603

c1ccccc1 [benzene]
[1], 298.15 K
Settings	mass density [kg/m3]	speed of sound [m/s]
–	873.62	1298

c1ccccc1 [benzene] + CCCO
[2]
Settings	speed of sound [m/s]
x1 = 0.0852	1192
x1 = 0.1733	1196
x1 = 0.2644	1200
x1 = 0.3059	1201
x1 = 0.3586	1203
x1 = 0.3995	1204
x1 = 0.4561	1206
x1 = 0.5274	1208
x1 = 0.582	1210
x1 = 0.6618	1213
x1 = 0.7267	1216
x1 = 0.7703	1219
x1 = 0.883	1233
x1 = 0.9335	1242

CCCO [propan-1-ol]
[1], 298.15 K
Settings	mass density [kg/m3]	speed of sound [m/s]
–	799.28	1188

Cc1ccccc1 [toluene]
[1], 298.15 K
Settings	mass density [kg/m3]	speed of sound [m/s]
–	862.23	1305

Cc1ccccc1 [toluene] + CCCO
[2]
Settings	speed of sound [m/s]
x1 = 0.0724	1193
x1 = 0.1494	1199
x1 = 0.2314	1204
x1 = 0.319	1209
x1 = 0.3586	1211
x1 = 0.4352	1216
x1 = 0.5131	1220
x1 = 0.5724	1224
x1 = 0.6211	1227
x1 = 0.6846	1231
x1 = 0.7376	1235
x1 = 0.7829	1239
x1 = 0.8635	1247
x1 = 0.9243	1253
